From ChEMBL document CHEMBL1649312, “Absence of association between piperaquine in vitro responses and polymorphisms in the pfcrt, pfmdr1, pfmrp, and pfnhe genes in Plasmodium falciparum” (Antimicrob Agents Chemother, 2010)
pIC50: −log10 of the molar value.

How the values were obtained:
Format in all cases: functional, organism-based
Plasmodium falciparum [1] = assay: Antimalarial activity against Plasmodium falciparum 106/1 harboring Ppcrt M74I, N75E, K76T, A220S, Q271E, N326S and I356T mutant gene, Pmdr1 N86Y mutant gene and Pfmrp H191Y and S437A mutant gene assessed as incorporation of [3]H hypoxanthine after 48 hrs by scintillation counter; conditions: 106/1, 48 h
Plasmodium falciparum [2] = assay: (§1) Antimalarial activity against Plasmodium falciparum 3D7 harboring Ppcrt I371R mutant gene and Pfnhe-1 ms4760 microsatellite mutant assessed as incorporation of [3]H hypoxanthine after 48 hrs by scintillation counter; conditions: 3D7, 48 h
Plasmodium falciparum [3] = assay: Antimalarial activity against Plasmodium falciparum IMT K2 assessed as inhibition of [3H] incorporation after 48 hrs by scintillation counter
Plasmodium falciparum [4] = assay: as §1, with “IMT Guy” for “3D7”, “Ppcrt K76T, A220S, N326D and” for “Ppcrt”, “I371R mutant gene, Pmdr1 […], 1042D and D1246Y, mutant gene and Pfmrp H191Y and S437A” for “I371R”
Plasmodium falciparum [5] = assay: Antimalarial activity against Plasmodium falciparum IMT 8425 harboring Ppcrt I371R mutant gene and Pfnhe-1 ms4760 microsatellite mutant assessed as incorporation of [3]H hypoxanthine after 48 hrs by scintillation counter; conditions: IMT 8425, 48 h
Plasmodium falciparum [6] = assay: Antimalarial activity against Plasmodium falciparum 3D7 assessed as inhibition of [3H] incorporation after 48 hrs by scintillation counter
Plasmodium falciparum [7] = assay: Antimalarial activity against Plasmodium falciparum W2 harboring Ppcrt M74I, N75E, K76T, A220S, Q271E, N326S and I356T mutant gene, Pmdr1 N86Y mutant gene and Pfmrp H191Y and S437A mutant gene assessed as incorporation of [3]H hypoxanthine after 48 hrs by scintillation counter; conditions: W2, 48 h
Plasmodium falciparum [8] = assay: Antimalarial activity against Plasmodium falciparum IMT 9881 harboring Ppcrt I371R mutant gene assessed as incorporation of [3]H hypoxanthine after 48 hrs by scintillation counter; conditions: IMT 9881, 48 h
Plasmodium falciparum [9] = assay: Antimalarial activity against Plasmodium falciparum IMT 10354 assessed as inhibition of [3H] incorporation after 48 hrs by scintillation counter
Plasmodium falciparum [10] = assay: Antimalarial activity against Plasmodium falciparum IMT 10354 harboring Ppcrt M74I, N75E, K76T, A220S mutant gene, Pmdr1 D1246Y mutant gene assessed as incorporation of [3]H hypoxanthine after 48 hrs by scintillation counter; conditions: IMT 10354, 48 h
Plasmodium falciparum [11] = assay: Antimalarial activity against Plasmodium falciparum IMT 16332 assessed as inhibition of [3H] incorporation after 48 hrs by scintillation counter
Plasmodium falciparum [12] = assay: Antimalarial activity against Plasmodium falciparum PA harboring Ppcrt M74I, N75E, K76T, A220S, Q271E, N326S and I356T mutant gene, Pmdr1 N86Y mutant gene and Pfmrp H191Y and S437A mutant gene assessed as incorporation of [3]H hypoxanthine after 48 hrs by scintillation counter
Plasmodium falciparum [13] = assay: Antimalarial activity against Plasmodium falciparum IMT 10336 harboring Pfcrt Q271E mutant gene and Ppcrt I371R mutant gene assessed as incorporation of [3]H hypoxanthine after 48 hrs by scintillation counter; conditions: IMT 10336, 48 h
Plasmodium falciparum [14] = assay: Antimalarial activity against Plasmodium falciparum IMT L1 assessed as inhibition of [3H] incorporation after 48 hrs by scintillation counter
Plasmodium falciparum [15] = assay: Antimalarial activity against Plasmodium falciparum W2 assessed as inhibition of [3H] incorporation after 48 hrs by scintillation counter
Plasmodium falciparum [16] = assay: Antimalarial activity against Plasmodium falciparum IMT 31 assessed as inhibition of [3H] incorporation after 48 hrs by scintillation counter
Plasmodium falciparum [17] = assay: Antimalarial activity against Plasmodium falciparum D6 assessed as inhibition of [3H] incorporation after 48 hrs by scintillation counter
Plasmodium falciparum [18] = assay: Antimalarial activity against Plasmodium falciparum D6 harboring Ppcrt I371R mutant gene assessed as incorporation of [3]H hypoxanthine after 48 hrs by scintillation counter; conditions: D6, 48 h
Plasmodium falciparum [19] = assay: Antimalarial activity against Plasmodium falciparum IMT 8425 assessed as inhibition of [3H] incorporation after 48 hrs by scintillation counter
Plasmodium falciparum [20] = assay: Antimalarial activity against Plasmodium falciparum IMT K4 assessed as inhibition of [3H] incorporation after 48 hrs by scintillation counter
Plasmodium falciparum [21] = assay: Antimalarial activity against Plasmodium falciparum FCR3 harboring Ppcrt M74I, N75E, K76T, A220S, Q271E, N326S and I356T mutant gene, Pmdr1 N86Y mutant gene and Pfmrp H191Y and S437A mutant gene assessed as incorporation of [3]H hypoxanthine after 48 hrs by scintillation counter; conditions: FCR3, 48 h
Plasmodium falciparum [22] = assay: Antimalarial activity against Plasmodium falciparum IMT L1 harboring Ppcrt M74I, N75E, K76T, A220S, Q271E mutant gene, Pmdr1 N86Y mutant gene and Pfmrp H191Y and S437A mutant gene assessed as incorporation of [3]H hypoxanthine after 48 hrs by scintillation counter; conditions: IMT L1, 48 h
Plasmodium falciparum [23] = assay: Antimalarial activity against Plasmodium falciparum FCR3 assessed as inhibition of [3H] incorporation after 48 hrs by scintillation counter
Plasmodium falciparum [24] = assay: Antimalarial activity against Plasmodium falciparum PA assessed as inhibition of [3H] incorporation after 48 hrs by scintillation counter
Plasmodium falciparum [25] = assay: Antimalarial activity against Plasmodium falciparum IMT 16332 harboring Ppcrt M74I, N75E, K76T, A220S, Q271E mutant gene, Pmdr1 N86Y mutant gene assessed as incorporation of [3]H hypoxanthine after 48 hrs by scintillation counter; conditions: IMT 16332, 48 h
Plasmodium falciparum [26] = assay: Antimalarial activity against Plasmodium falciparum IMT 10500 harboring Pfcrt Q271E mutant gene and Ppcrt I371R mutant gene and Pfnhe-1 ms4760 microsatellite mutant assessed as incorporation of [3]H hypoxanthine after 48 hrs by scintillation counter; conditions: IMT 10500, 48 h
Plasmodium falciparum [27] = assay: Antimalarial activity against Plasmodium falciparum IMT Vol harboring Ppcrt M74I, N75E, K76T, A220S, Q271E, N326S mutant gene, Pmdr1 N86Y mutant gene and Pfmrp H191Y and S437A mutant gene assessed as incorporation of [3]H hypoxanthine after 48 hrs by scintillation counter
Plasmodium falciparum [28] = assay: Antimalarial activity against Plasmodium falciparum IMT Bres assessed as inhibition of [3H] incorporation after 48 hrs by scintillation counter
Plasmodium falciparum [29] = assay: Antimalarial activity against Plasmodium falciparum IMT K4 harboring Ppcrt M74I, N75E, K76T, A220S, Q271E, N326S mutant gene, Pmdr1 S1034C, N1042D mutant gene and Pfmrp H191Y and S437A mutant gene assessed as incorporation of [3]H hypoxanthine after 48 hrs by scintillation counter; conditions: IMT K4, 48 h
Plasmodium falciparum [30] = assay: Antimalarial activity against Plasmodium falciparum IMT K14 assessed as inhibition of [3H] incorporation after 48 hrs by scintillation counter
Plasmodium falciparum [31] = assay: Antimalarial activity against Plasmodium falciparum IMT A4 assessed as inhibition of [3H] incorporation after 48 hrs by scintillation counter
Plasmodium falciparum [32] = assay: Antimalarial activity against Plasmodium falciparum IMT Bres harboring Ppcrt M74I, N75E, K76T, A220S, Q271E, N326S and I356T mutant gene, Pmdr1 N86Y mutant gene and Pfmrp H191Y and S437A mutant gene assessed as incorporation of [3]H hypoxanthine after 48 hrs by scintillation counter
Plasmodium falciparum [33] = assay: Antimalarial activity against Plasmodium falciparum IMT K2 harboring Ppcrt M74I, N75E, K76T, A220S, Q271E, N326S mutant gene, Pmdr1 S1034C, N1042D mutant gene and Pfmrp H191Y and S437A mutant gene assessed as incorporation of [3]H hypoxanthine after 48 hrs by scintillation counter; conditions: IMT K2, 48 h
Plasmodium falciparum [34] = assay: Antimalarial activity against Plasmodium falciparum IMT K14 harboring Ppcrt M74I, N75E, K76T, A220S, Q271E, N326S mutant gene, Pmdr1 Y184F, S1034C, N1042D, D1246Y mutant gene and Pfmrp H191Y and S437A mutant gene assessed as incorporation of [3]H hypoxanthine after 48 hrs by scintillation counter; conditions: IMT K14, 48 h
Plasmodium falciparum [35] = assay: Antimalarial activity against Plasmodium falciparum FCM29 assessed as inhibition of [3H] incorporation after 48 hrs by scintillation counter
Plasmodium falciparum [36] = assay: Antimalarial activity against Plasmodium falciparum IMT 9881 assessed as inhibition of [3H] incorporation after 48 hrs by scintillation counter
Plasmodium falciparum [37] = assay: Antimalarial activity against Plasmodium falciparum HB3 harboring Ppcrt I371R mutant gene and Pfmdr1 Y184F mutant gene assessed as incorporation of [3]H hypoxanthine after 48 hrs by scintillation counter; conditions: HB3, 48 h
Plasmodium falciparum [38] = assay: Antimalarial activity against Plasmodium falciparum IMT 10500 assessed as inhibition of [3H] incorporation after 48 hrs by scintillation counter
Plasmodium falciparum [39] = assay: Antimalarial activity against Plasmodium falciparum IMT A4 harboring Ppcrt M74I, N75E, K76T, […], Q271E, N326S and I356T mutant gene, Pmdr1 Y184F, N1042D, D1246Y mutant gene assessed as incorporation of [3]H hypoxanthine after 48 hrs by scintillation counter; conditions: IMT A4, 48 h
Plasmodium falciparum [40] = assay: Antimalarial activity against Plasmodium falciparum IMT 31 harboring Ppcrt I371R mutant gene assessed as incorporation of [3]H hypoxanthine after 48 hrs by scintillation counter; conditions: IMT 31, 48 h
Plasmodium falciparum [41] = assay: Antimalarial activity against Plasmodium falciparum FCM29 harboring Ppcrt M74I, N75E, K76T, A220S, Q271E, N326S and I356T mutant gene, Pmdr1 N86Y mutant gene and Pfmrp H191Y and S437A mutant gene assessed as incorporation of [3]H hypoxanthine after 48 hrs by scintillation counter; conditions: FCM29, 48 h
Plasmodium falciparum [42] = assay: Antimalarial activity against Plasmodium falciparum IMT Vol assessed as inhibition of [3H] incorporation after 48 hrs by scintillation counter
Plasmodium falciparum [43] = assay: Antimalarial activity against Plasmodium falciparum IMT 10336 assessed as inhibition of [3H] incorporation after 48 hrs by scintillation counter

## C[C@H]1[C@@H](O)O[C@@H]2O[C@@]3(C)CC[C@H]4[C@H](C)CC[C@@H]1[C@@]24OO3 [ARTENIMOL]
Plasmodium falciparum [1]
  pIC50: 8.24
Plasmodium falciparum [2]
  pIC50: 8.55
Plasmodium falciparum [3]
  pIC50: 8.92
Plasmodium falciparum [4]
  pIC50: 8.74
Plasmodium falciparum [5]
  pIC50: 8.77
Plasmodium falciparum [6]
  pIC50: 8.55
Plasmodium falciparum [7]
  pIC50: 8.52
Plasmodium falciparum [8]
  pIC50: 8.46
Plasmodium falciparum [9]
  pIC50: 9.40
Plasmodium falciparum [10]
  pIC50: 9.40
Plasmodium falciparum [11]
  pIC50: 8.96
Plasmodium falciparum [12]
  pIC50: 8.85
Plasmodium falciparum [13]
  pIC50: 8.80
Plasmodium falciparum [14]
  pIC50: 9.05
Plasmodium falciparum [15]
  pIC50: 8.52
Plasmodium falciparum [16]
  pIC50: 8.77
Plasmodium falciparum [17]
  pIC50: 8.85
Plasmodium falciparum [18]
  pIC50: 8.85
Plasmodium falciparum [19]
  pIC50: 8.77
Plasmodium falciparum [20]
  pIC50: 8.47
Plasmodium falciparum [21]
  pIC50: 8.80
Plasmodium falciparum [22]
  pIC50: 9.05
Plasmodium falciparum [23]
  pIC50: 8.80
Plasmodium falciparum [24]
  pIC50: 8.85
Plasmodium falciparum [25]
  pIC50: 8.96
Plasmodium falciparum [26]
  pIC50: 8.48
Plasmodium falciparum [27]
  pIC50: 8.92
Plasmodium falciparum [28]
  pIC50: 8.85
Plasmodium falciparum [29]
  pIC50: 8.47
Plasmodium falciparum [30]
  pIC50: 8.68
Plasmodium falciparum [31]
  pIC50: 8.82
Plasmodium falciparum [32]
  pIC50: 8.85
Plasmodium falciparum [33]
  pIC50: 8.92
Plasmodium falciparum [34]
  pIC50: 8.68
Plasmodium falciparum [35]
  pIC50: 8.89
Plasmodium falciparum [36]
  pIC50: 8.46
Plasmodium falciparum [37]
  pIC50: 8.52
Plasmodium falciparum [38]
  pIC50: 8.48
Plasmodium falciparum [39]
  pIC50: 8.82
Plasmodium falciparum [40]
  pIC50: 8.77
Plasmodium falciparum [41]
  pIC50: 8.89
Plasmodium falciparum [42]
  pIC50: 8.92
Plasmodium falciparum [43]
  pIC50: 8.80
